For assay [1], the target named is T1, cMET enzyme (amino acids 1023-1360) (Homo sapiens, UniProt P08581).
T1 construct: The cMET enzyme (amino acids 1023-1360) nominally at 24 μM was held at −80° C. until use; His tag (N, cleaved yes); made in house; host or cells: Sf9 cells
Description: Determination of inhibition of cMET (capillary electrophoresis, phosphorylated peptide product). In kind it is biochemical. The conditions noted are these: 1.2 nM cMET, 50 μM ATP, 2 μM FL-2 peptide, 2 hours room temperature.

A further assay deals with MKN45. Nature of the assay: Inhibition of cell viability (MTS), MKN45. In kind it is cell-based. The conditions noted are these: Homo sapiens, MKN-45, 96 h, MKN45 cells, 96 hours incubation. In outline: (§1)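 Cells seeded at 2,000-7,500/well, attached ~24 h, then treated in duplicate with 1:2.5 serial dilutions at 0.5% final DMSO. Viability by MTS; EC50 from non-linear fit after background correction and normalisation to DMSO. MKN45 and EBC1 are cMET-dependent; A549 serves as negative control.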

A further assay has as its system EBC1. Nature of the assay: Inhibition of cell viability (MTS), EBC1. In kind it is cell-based. The note with it: Homo sapiens, EBC-1, 96 h, EBC1 cells, 96 hours incubation. Summed up:
as §1

In another assay the test system is A549. Nature of the assay: Inhibition of cell viability (MTS), A549 (negative control line). In kind it is cell-based. The note with it: Homo sapiens, A549, 96 h, A549 cells (negative control), 96 hours incubation. Summed up:
as §1

T1 sequence (P08581 1023-1360): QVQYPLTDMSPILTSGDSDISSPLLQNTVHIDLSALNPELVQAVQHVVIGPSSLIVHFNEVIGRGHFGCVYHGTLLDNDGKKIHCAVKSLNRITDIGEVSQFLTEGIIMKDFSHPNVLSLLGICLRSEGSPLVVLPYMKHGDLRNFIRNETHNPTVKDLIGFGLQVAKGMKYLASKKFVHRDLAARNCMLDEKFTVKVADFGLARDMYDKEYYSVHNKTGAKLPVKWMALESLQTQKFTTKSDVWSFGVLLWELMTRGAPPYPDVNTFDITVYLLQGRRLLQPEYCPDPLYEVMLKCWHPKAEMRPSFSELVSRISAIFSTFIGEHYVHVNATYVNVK

The term IC50 denotes the concentration that inhibits the measured activity by half. A high value points to a need for much substance. As a reminder, the EC50 is the concentration giving half of the maximal effect. In the case of `CC(c1ccc2nc(NC(=O)C3CC3)cn2n1)c1nnc2ccccn12` (stereo not drawn) [Compound 52, N-(6-(1-([1,2,4]triazolo[4,3-a]pyridin-3-yl)ethyl)imidazo[1,2-b]pyridazin-2-yl)cyclopropanecarboxamide], the IC50 in assay [1] was over 100 nM. Further, the 50% effective concentration (EC50) in the assay with MKN45 was over 100 nM; in the assay on EBC1 it was over 100 nM; with A549 it was over 50000 nM.

As for `Cc1ccc2nnc(C(C)c3ccc4nc(NC(=O)C5CC5)cn4n3)n2c1` (stereo not drawn) [Compound 53, N-(6-(1-(6-methyl-[1,2,4]triazolo[4,3-a]pyridin-3-yl)ethyl)imidazo[1,2-b]pyridazin-2-yl)cyclopropanecarboxamide], the IC50 in assay [1] was 250 to 630 nM. For the same molecule, the concentration for a half-maximal effect (EC50) in the assay with MKN45 is 250 to 630 nM; in the assay on EBC1, 250 to 630 nM; with A549 it was over 50000 nM.

The molecule `CC(c1ccc2nc(NC(=O)C3CC3)cn2n1)c1nnc2ccc(-c3ccc(F)cc3)cn12` (stereo not drawn) [Compound 55, N-(6-(1-(6-(4-fluorophenyl)-[1,2,4]triazolo[4,3-a]pyridin-3-yl)ethyl)imidazo[1,2-b]pyridazin-2-yl)cyclopropanecarboxamide] displayed an IC50 in assay [1] of under 30 nM. In addition, the concentration giving a half-maximal response (EC50) in the assay with MKN45 was under 30 nM; in the assay with EBC1 it was under 30 nM; in the assay on A549 it was over 50000 nM.

On to `COc1ccc(-c2ccc3nnc(C(C)c4ccc5nc(NC(=O)C6CC6)cn5n4)n3c2)cc1` (stereo not drawn) [Compound 56, N-(6-(1-(6-(4-methoxyphenyl)-[1,2,4]triazolo[4,3-a]pyridin-3-yl)ethyl)imidazo[1,2-b]pyridazin-2-yl)cyclopropanecarboxamide], for which the half-inhibitory concentration (IC50) in assay [1] is under 30 nM. Moreover, the EC50 in the assay with MKN45 is under 30 nM; with EBC1, under 30 nM; with A549, over 50000 nM.

As for `CC(c1ccc2nc(NC(=O)C3CC3)cn2n1)c1nnc2ccc(-c3cccc(C#N)c3)cn12` (stereo not drawn) [Compound 57, N-(6-(1-(6-(3-cyanophenyl)-[1,2,4]triazolo[4,3-a]pyridin-3-yl)ethyl)imidazo[1,2-b]pyridazin-2-yl)cyclopropanecarboxamide], in assay [1], the 50% inhibitory concentration (IC50) is under 30 nM. For the same molecule, the EC50 with MKN45 was under 30 nM; with EBC1, under 30 nM; with A549 it was over 50000 nM.

`CNC(=O)c1ccc(-c2ccc3nnc(C(C)c4ccc5nc(NC(=O)C6CC6)cn5n4)n3c2)cc1F` (stereo not drawn) [Compound 58, 4-(3-(1-(2-(cyclopropanecarboxamido)imidazo[1,2-b]pyridazin-6-yl)ethyl)-[1,2,4]triazolo[4,3-a]pyridin-6-yl)-2-fluoro-N-methylbenzamide] returned a concentration for half-maximal inhibition (IC50) in assay [1] of under 30 nM. Also, the EC50 was under 30 nM with MKN45, under 30 nM with EBC1 and over 50000 nM with A549.

Consider `CC(c1ccc2nc(NC(=O)C3CC3)cn2n1)c1nnc2ccc(-c3cccc(S(C)(=O)=O)c3)cn12` (stereo not drawn) [Compound 59, N-(6-(1-(6-(3-(methylsulfonyl)phenyl)-[1,2,4]triazolo[4,3-a]pyridin-3-yl)ethyl)imidazo[1,2-b]pyridazin-2-yl)cyclopropanecarboxamide], for which the half-maximal inhibitory concentration (IC50) in assay [1] was under 30 nM. Further, the results for the concentration giving a half-maximal response (EC50) in the assay with MKN45, in the assay on EBC1 and in the assay on A549 were 100 to 249 nM, 60 to 100 nM and over 50000 nM, respectively.

Consider `CC(c1ccc2nc(NC(=O)C3CC3)cn2n1)c1nnc2ccc(-c3ccc(S(C)(=O)=O)cc3)cn12` (stereo not drawn) [Compound 60, N-(6-(1-(6-(4-(methylsulfonyl)phenyl)-[1,2,4]triazolo[4,3-a]pyridin-3-yl)ethyl)imidazo[1,2-b]pyridazin-2-yl)cyclopropanecarboxamide], for which the IC50 in assay [1] is under 30 nM. The values for the EC50 in the assay with MKN45, with EBC1 and in the assay on A549 were 60 to 100 nM, 60 to 100 nM and over 50000 nM, respectively.

In assay [1], `COc1cccc(-c2ccc3nnc(C(C)c4ccc5nc(NC(=O)C6CC6)cn5n4)n3c2)c1` (stereo not drawn) [Compound 61, N-(6-(1-(6-(3-methoxyphenyl)-[1,2,4]triazolo[4,3-a]pyridin-3-yl)ethyl)imidazo[1,2-b]pyridazin-2-yl)cyclopropanecarboxamide] registered an IC50 of under 30 nM. Moreover, the values for the EC50 in the assay with MKN45, with EBC1 and with A549 were under 30 nM, under 30 nM and over 50000 nM, respectively.

Turning to `Cc1csc(-c2ccc3nnc(C(C)c4ccc5nc(NC(=O)C6CC6)cn5n4)n3c2)c1` (stereo not drawn) [Compound 62, N-(6-(1-(6-(4-methylthiophen-2-yl)-[1,2,4]triazolo[4,3-a]pyridin-3-yl)ethyl)imidazo[1,2-b]pyridazin-2-yl)cyclopropanecarboxamide], in assay [1], the IC50 is under 30 nM. The EC50 is under 30 nM in the assay with MKN45, under 30 nM in the assay with EBC1 and 5000 to 8000 nM with A549.

In assay [1], `CC(c1ccc2nc(NC(=O)C3CC3)cn2n1)c1nnc2ccc(-c3ccc(C#N)cc3)cn12` (stereo not drawn) [Compound 63, N-(6-(1-(6-(4-cyanophenyl)-[1,2,4]triazolo[4,3-a]pyridin-3-yl)ethyl)imidazo[1,2-b]pyridazin-2-yl)cyclopropanecarboxamide] came in with a 50% inhibitory concentration (IC50) of under 30 nM. Besides, the 50% effective concentration (EC50) was under 30 nM in the assay with MKN45, under 30 nM with EBC1 and over 50000 nM with A549.

In assay [1], `CC(c1ccc2nc(NC(=O)C3CC3)cn2n1)c1nnc2ccc(-c3cn[nH]c3)cn12` (stereo not drawn) [Compound 64, N-(6-(1-(6-(1H-pyrazol-4-yl)-[1,2,4]triazolo[4,3-a]pyridin-3-yl)ethyl)imidazo[1,2-b]pyridazin-2-yl)cyclopropanecarboxamide] yielded an IC50 of under 30 nM. The figures for the concentration for a half-maximal effect (EC50) in the assay on MKN45, with EBC1 and with A549 were 100 to 249 nM, 100 to 249 nM and over 50000 nM, respectively.

For `CC(c1ccc2nc(NC(=O)C3CC3)cn2n1)c1nnc2ccc(-c3cccc(F)c3)cn12` (stereo not drawn) [Compound 65, N-(6-(1-(6-(3-fluorophenyl)-[1,2,4]triazolo[4,3-a]pyridin-3-yl)ethyl)imidazo[1,2-b]pyridazin-2-yl)cyclopropanecarboxamide], the 50% inhibitory concentration (IC50) in assay [1] is under 30 nM. Further, the EC50 was under 30 nM in the assay with MKN45, under 30 nM in the assay with EBC1 and over 50000 nM in the assay on A549.

For `CC(c1ccc2nc(NC(=O)C3CC3)cn2n1)c1nnc2ccc(-c3cccc(C(N)=O)c3)cn12` (stereo not drawn) [Compound 66, 3-(3-(1-(2-(cyclopropanecarboxamido)imidazo[1,2-b]pyridazin-6-yl)ethyl)-[1,2,4]triazolo[4,3-a]pyridin-6-yl)benzamide], the IC50 in assay [1] was under 30 nM. Moreover, the results for the EC50 with MKN45, in the assay on EBC1 and in the assay on A549 were 100 to 249 nM, 100 to 249 nM and over 50000 nM, respectively.

`CC(c1ccc2nc(NC(=O)C3CC3)cn2n1)c1nnc2ccc(-c3ccc(C(N)=O)cc3)cn12` (stereo not drawn) [Compound 67, 4-(3-(1-(2-(cyclopropanecarboxamido)imidazo[1,2-b]pyridazin-6-yl)ethyl)-[1,2,4]triazolo[4,3-a]pyridin-6-yl)benzamide] gave an IC50 in assay [1] of under 30 nM. The EC50 is 100 to 249 nM in the assay on MKN45, 60 to 100 nM in the assay with EBC1 and over 50000 nM in the assay on A549.

Regarding `CNC(=O)c1ccc(-c2ccc3nnc(C(C)c4ccc5nc(NC(=O)C6CC6)cn5n4)n3c2)cc1` (stereo not drawn) [Compound 68, 4-(3-(1-(2-(cyclopropanecarboxamido)imidazo[1,2-b]pyridazin-6-yl)ethyl)-[1,2,4]triazolo[4,3-a]pyridin-6-yl)-N-methylbenzamide], in assay [1], the concentration for half-maximal inhibition (IC50) is under 30 nM. Moreover, the EC50 in the assay with MKN45 was 30 to 59 nM; in the assay with EBC1, 30 to 59 nM; in the assay with A549, over 50000 nM.

As to `CCOc1ccc(-c2ccc3nnc(C(C)c4ccc5nc(NC(=O)C6CC6)cn5n4)n3c2)cc1` (stereo not drawn) [Compound 69, N-(6-(1-(6-(4-ethoxyphenyl)-[1,2,4]triazolo[4,3-a]pyridin-3-yl)ethyl)imidazo[1,2-b]pyridazin-2-yl)cyclopropanecarboxamide], the 50% inhibitory concentration (IC50) in assay [1] was under 30 nM. Also, the EC50 was under 30 nM in the assay with MKN45, under 30 nM in the assay with EBC1 and over 50000 nM in the assay on A549.

On to `COc1ccc(-c2ccc3nnc(C(C)c4ccc5nc(NC(=O)C6CC6)cn5n4)n3c2)cc1C` (stereo not drawn) [Compound 70, N-(6-(1-(6-(4-methoxy-3-methylphenyl)-[1,2,4]triazolo[4,3-a]pyridin-3-yl)ethyl)imidazo[1,2-b]pyridazin-2-yl)cyclopropanecarboxamide], for which the IC50 in assay [1] is under 30 nM. The EC50 in the assay with MKN45 is under 30 nM; in the assay on EBC1, under 30 nM; in the assay with A549 it was over 50000 nM.

Regarding `CC(c1ccc2nc(NC(=O)C3CC3)cn2n1)c1nnc2ccc(-c3ccc(F)c(C#N)c3)cn12` (stereo not drawn) [Compound 71, N-(6-(1-(6-(3-cyano-4-fluorophenyl)-[1,2,4]triazolo[4,3-a]pyridin-3-yl)ethyl)imidazo[1,2-b]pyridazin-2-yl)cyclopropanecarboxamide], in assay [1], the IC50 was under 30 nM. In addition, the half-maximal effective concentration (EC50) in the assay on MKN45 was under 30 nM; in the assay with EBC1, under 30 nM; in the assay on A549, over 50000 nM.

The molecule `CC(c1ccc2nc(NC(=O)C3CC3)cn2n1)c1nnc2ccc(-c3ccc(C#N)c(F)c3)cn12` (stereo not drawn) [Compound 72, N-(6-(1-(6-(4-cyano-3-fluorophenyl)-[1,2,4]triazolo[4,3-a]pyridin-3-yl)ethyl)imidazo[1,2-b]pyridazin-2-yl)cyclopropanecarboxamide] displayed a concentration for half-maximal inhibition (IC50) in assay [1] of under 30 nM. Also, the half-maximal effective concentration (EC50) in the assay with MKN45 is under 30 nM; in the assay on EBC1 it was under 30 nM; with A549 it was over 50000 nM.

Molecule `CC(c1ccc2nc(NC(=O)C3CC3)cn2n1)c1nnc2ccc(-c3cccc(N(C)C)c3)cn12` (stereo not drawn) [Compound 73, N-(6-(1-(6-(3-(dimethylamino)phenyl)-[1,2,4]triazolo[4,3-a]pyridin-3-yl)ethyl)imidazo[1,2-b]pyridazin-2-yl)cyclopropanecarboxamide] displayed a concentration for half-maximal inhibition (IC50) in assay [1] of under 30 nM. The values for the EC50 in the assay with MKN45, in the assay with EBC1 and in the assay with A549 were under 30 nM, under 30 nM and 8000 to 25000 nM, respectively.
